Test results from PubChem BioAssay (NCI).
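In this assay, cells in 96-well plates receive the compound at five concentrations for 48 hours. Endpoints are linearly interpolated between the surrounding concentrations. TGI is the concentration that stops growth completely.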

Experiments:
Assay in all cases: NCI tumour cell line growth inhibition, 48 h
[1] = test system: SNB-78 CNS
[2] = test system: HCT-15 colon
[3] = test system: OVCAR-5 ovarian
[4] = test system: UACC-257 melanoma
[5] = test system: MOLT-4 leukemia
[6] = test system: ACHN renal
[7] = test system: A549 NSCLC
[8] = test system: OVCAR-4 ovarian
[9] = test system: SF-295 CNS
[10] = test system: SNB-19 CNS
[11] = test system: RPMI-8226 leukemia
[12] = test system: HCT-116 colon
[13] = test system: NCI-H522 lung
[14] = test system: SK-MEL-28 melanoma
[15] = test system: RXF-631 renal
[16] = test system: SF-539 CNS
[17] = test system: NCI-H226 lung
[18] = test system: NCI-H23 lung
[19] = test system: RXF 393 renal
[20] = test system: 786-0 renal
[21] = test system: DMS 273 small cell lung
[22] = test system: SN12C renal
[23] = test system: SF-268 CNS
[24] = test system: DLD-1 colon
[25] = test system: LOX IMVI melanoma
[26] = test system: COLO 205 colon
[27] = test system: MALME-3M melanoma
[28] = test system: OVCAR-3 ovarian
[29] = test system: K-562 leukemia
[30] = test system: HL-60(TB) leukemia
[31] = test system: DMS 114 small cell lung
[32] = test system: U251 CNS
[33] = test system: M14 melanoma
[34] = test system: CCRF-CEM leukemia
[35] = test system: NCI-H460 lung
[36] = test system: IGROV1 ovarian
[37] = test system: TK-10 renal
[38] = test system: M19-MEL melanoma
[39] = test system: UACC-62 melanoma
[40] = test system: HCC-2998 colon
[41] = test system: KM20L2 colon
[42] = test system: SK-MEL-2 melanoma
[43] = test system: SNB-75 CNS
[44] = test system: HOP-62 NSCLC
[45] = test system: HT29 colon
[46] = test system: LXFL 529 NSCLC
[47] = test system: KM12 colon
[48] = test system: HOP-92 NSCLC
[49] = test system: XF 498 CNS
[50] = test system: A498 renal
[51] = test system: SK-MEL-5 melanoma
[52] = test system: SR leukemia
[53] = test system: SK-OV-3 ovarian
[54] = test system: CAKI-1 renal
[55] = test system: UO-31 renal
[56] = test system: OVCAR-8 ovarian
[57] = test system: SW-620 colon
[58] = test system: EKVX NSCLC

`N#CCCn1c(CCC(=O)Nc2ccc(Cl)cc2Cl)n[nH]c1=S` was tested, and the TGI [1] was over 100 µM, the TGI [2] was over 100 µM and the TGI [3] was over 100 µM. The TGI [4] was over 100 µM, the TGI [5] was over 100 µM and the TGI [6] was over 100 µM. The TGI [7] was over 100 µM, the TGI [8] was over 100 µM and the TGI [9] was over 100 µM. The TGI [10] was over 100 µM, the TGI [11] was over 100 µM and the TGI [12] was over 100 µM. The TGI [13] was over 100 µM, the TGI [14] was over 100 µM and the TGI [15] was over 100 µM. The TGI [16] was over 100 µM, the TGI [17] was over 100 µM and the TGI [18] was over 100 µM. It also gave a TGI [19] of over 100 µM, a TGI [20] of over 100 µM and a TGI [21] of over 100 µM. The TGI [22] was over 100 µM, the TGI [23] was over 100 µM and the TGI [24] was over 100 µM. It also gave a TGI [25] of over 100 µM, a TGI [26] of over 100 µM and a TGI [27] of over 100 µM. The TGI [28] was over 100 µM, the TGI [29] was over 100 µM and the TGI [30] was over 100 µM. The TGI [31] was over 100 µM, the TGI [32] was over 100 µM and the TGI [33] was over 100 µM. The TGI [34] was over 100 µM, the TGI [35] was over 100 µM and the TGI [36] was over 100 µM. The TGI [37] was over 100 µM, the TGI [38] was over 100 µM and the TGI [39] was over 100 µM. It also gave a TGI [40] of over 100 µM, a TGI [41] of over 100 µM and a TGI [42] of over 100 µM. The TGI [43] was over 100 µM, the TGI [44] was over 100 µM and the TGI [45] was over 100 µM. It also gave a TGI [46] of over 100 µM, a TGI [47] of over 100 µM and a TGI [48] of over 100 µM. It also gave a TGI [49] of over 100 µM, a TGI [50] of over 100 µM and a TGI [51] of over 100 µM. It also gave a TGI [52] of over 100 µM, a TGI [53] of over 100 µM and a TGI [54] of over 100 µM. For the same compound, the TGI [55] was over 100 µM, the TGI [56] was over 100 µM and the TGI [57] was over 100 µM.

`CCN1CCC(O)(/C=C/c2ccc(Cl)cc2)C(C(=O)/C=C/c2ccc(Cl)cc2)C1` (stereo not drawn) showed a TGI [1] of over 100 µM, a TGI [2] of 46.4 µM and a TGI [3] of over 100 µM. The TGI [4] was 35.5 µM, the TGI [5] was over 100 µM and the TGI [6] was over 100 µM. For the same compound, the TGI [7] was 92.5 µM, the TGI [8] was 96 µM and the TGI [9] was 60.3 µM. For the same compound, the TGI [10] was over 100 µM, the TGI [12] was 13.4 µM and the TGI [13] was 81.5 µM. For the same compound, the TGI [14] was 57 µM, the TGI [17] was 43.6 µM and the TGI [18] was 45.6 µM. It also gave a TGI [20] of 43.3 µM, a TGI [21] of 60.2 µM and a TGI [23] of over 100 µM. It also gave a TGI [24] of 33.8 µM, a TGI [25] of 32.4 µM and a TGI [26] of over 100 µM. For the same compound, the TGI [27] was over 100 µM, the TGI [28] was 40.2 µM and the TGI [29] was over 100 µM. It also gave a TGI [30] of over 100 µM, a TGI [31] of over 100 µM and a TGI [32] of 44.9 µM. It also gave a TGI [33] of over 100 µM, a TGI [34] of over 100 µM and a TGI [35] of over 100 µM. The TGI [36] was 62.6 µM, the TGI [37] was over 100 µM and the TGI [38] was 92.9 µM. For the same compound, the TGI [39] was 42.2 µM, the TGI [40] was 32.8 µM and the TGI [41] was 99.3 µM. The TGI [42] was over 100 µM, the TGI [43] was 74.5 µM and the TGI [44] was over 100 µM. For the same compound, the TGI [58] was over 100 µM, the TGI [45] was 42.8 µM and the TGI [46] was 28 µM. It also gave a TGI [47] of 29.5 µM, a TGI [49] of over 100 µM and a TGI [50] of 34.2 µM. For the same compound, the TGI [51] was 28.3 µM, the TGI [52] was over 100 µM and the TGI [53] was 61.7 µM. For the same compound, the TGI [55] was over 100 µM, the TGI [56] was 61.3 µM and the TGI [57] was 56.8 µM.
